Data taken from US20020055528A1, “Artemisinin analogs having antimalarial, antiproliferative, and antitumor activities and chemoselective methods of making the same” (priority 1999, published 2002).
“Also recorded” adds a separate entry of the source.

How the values were obtained:
Type in all cases: cell-based
[1] = tested on: 60 cell line panel; assay: NCI 60 cell line screen (SRB), whole panel; conditions: for Range of Log10GI50 (Table IV) / MG MID of Log10GI50 (Table IV) / Delta of Log10GI50 (Table IV): Table IV (LC50); for Range of Log10GI50 (Table IV) / Delta of Log10GI50 / Delta of Log10TGI / Range of Log10GI50 / Range of Log10TGI / Delta of Log10GI50 (Table IV): panel summary; for MG MID of Log10GI50 (Table IV) / MG MID of Log10GI50 / MG MID of Log10TGI: mean over the panel; for potency in words, compared with artemisinin and paclitaxel: Tables II, III and IV
Method: The screening assay is performed on 96-well microtitre plates. Relatively high initial inoculation densities are used, in order to permit measurement of “time-zero” values and to enhance the screen's ability to detect and provide some differentiation between antiproliferative and cytotoxic response parameters. […] The inoculated microtitre plates are pre-incubated for 24 hours at 37θC prior to drug additions. The five drug dilutions tested routinely range from 10^−4 to 10^−8 molar. Higher or lower concentration ranges may be selected on a nonroutine basis if appropriate solubility and/or prior biological information or other screening data so dictate. Duplicate wells are prepared for all concentrations, (concentration is often denoted by placing brackets around a number); “time-zero” and “no drug” controls are also provided for each test. The minimum amount of compound required for a one-time evaluation in the routine screen can be calculated from the knowledge that each test requires a total of approximately 40 ml (0.04 liter) of cell culture medium containing the highest desired drug concentration. Thus, the amount (grams) of sample required (assuming an upper test concentration limit of 10^−4 M) is: molecular weight of compound×[…]. After a 48 hour incubation (37θC) with the test compound, the cells are fixed in situ to the bottoms of the microtitre wells by addition of 50 ul of either 50% trichloroacetic acid (for adherent cell lines) or 80% trichloroacetic acid (for settled cell suspension lines), followed by incubation for 60 minutes at 4θC. The cellular protein in each well is assayed using a sulforhodamine B (SRB) stain procedure. Briefly, after discarding the supernatants, the microtitre plates are washed 5 times with deionized water and air-dried. One hundred microliters of SRB solution (0.4% w/v in 1% acetic acid) is added to each microtitre well and incubated for 10 minutes at room temperature. Unbound SRB is removed by washing 5 times with 1 % acetic acid. The plates are air-dried, the bound stain is solubilized with Tris buffer, and the optical densities read at 515 nm. SRB is a bright pink anionic dye which, in dilute acetic acid, binds electrostatically to the basic amino acids of TCA-fixed cells. Cryopreserved master stocks of all the lines are maintained, and cultures used for screening are replaced from the master stock after no more than twenty passages in the screening laboratory. The cell line panel consists of 60 lines, organized into nine, disease-related subpanels including leukemia, non-small-cell lung cancer, colon, CNS, melanoma, ovarian, renal, prostate and breast cancers.
The response parameters G150 and LC50 are interpolated values representing the concentrations at which the percentage growth (PG) is +50 and −50, respectively:
GI50 is the concentration for which the PG=+50. At this value the increase from time tzero, in the number or mass of cells in the test well is only 50% as much as the corresponding increase in the control well during this period of the experiment, see Table II. A drug effect of this intensity is interpreted as primary growth inhibition.
TGI is the concentration for which PG=0. At this value the number or mass of cells in the well at the end of the experiment equals the number or mass of cells in the well at time tzero, see Table III. A drug effect of this intensity is regarded as cytostasis.
LC50 is the concentration for which the PG=−50. At this value, the number or mass of cells in the test well at the end of the experiment is half that at time tzero, see Table IV. This is interpreted as cytotoxicity.

[2] = tested on: ACHN; assay: NCI 60 cell line screen (SRB), Renal Cancer; conditions: for Log10TGI: PG=0
[3] = tested on: HT29; assay: NCI 60 cell line screen (SRB), Colon Cancer; conditions: for Log10TGI: PG=0
[4] = tested on: HCT-116; assay: NCI 60 cell line screen (SRB), Colon Cancer; conditions: for Log10TGI: PG=0
[5] = tested on: OVCAR-8; assay: NCI 60 cell line screen (SRB), Ovarian Cancer; conditions: for Log10TGI: PG=0
[6] = tested on: KM12; assay: NCI 60 cell line screen (SRB), Colon Cancer; conditions: for Log10TGI: PG=0
[7] = tested on: RXF 393; assay: NCI 60 cell line screen (SRB), Renal Cancer; conditions: for Log10TGI: PG=0
[8] = tested on: SF-268; assay: NCI 60 cell line screen (SRB), CNS Cancer; conditions: for Log10TGI: PG=0; for Log10GI50: PG=+50
[9] = tested on: SK-OV-3; assay: NCI 60 cell line screen (SRB), Ovarian Cancer; conditions: for Log10TGI: PG=0
[10] = tested on: SK-MEL-28; assay: NCI 60 cell line screen (SRB), Melanoma

Structure (SMILES) | Range of Log10GI50 (Table IV) [1] | Delta of Log10GI50 [1] | Delta of Log10TGI [1] | Range of Log10GI50 [1] | Range of Log10TGI [1] | Log10TGI [2] [log10M] | Log10GI50 ([3]; PG=+50) [log10M] | Log10GI50 ([3]; Table IV (LC50, PG=−50)) [log10M] | Log10TGI [4] [log10M] | Log10GI50 ([5]; PG=+50) [log10M] | Log10GI50 ([5]; Table IV (LC50, PG=−50)) [log10M] | Log10TGI [6] [log10M] | Log10GI50 ([6]; PG=+50) [log10M] | Log10GI50 ([6]; Table IV (LC50, PG=−50)) [log10M] | Log10TGI [7] [log10M] | Log10GI50 ([7]; PG=+50) [log10M] | Log10GI50 ([7]; Table IV (LC50, PG=−50)) [log10M] | Log10TGI [8] [log10M] | Log10GI50 [8] [log10M] | MG MID of Log10GI50 (Table IV) [1] [log10M] | also measured
CC(=O)O[C@H]1C(=O)[C@@]2(C)[C@H]([C@H](OC(=O)c3ccccc3)[C@]3(O)C[C@H](OC(=O)[C@H](O)[C@@H](NC(=O)c4ccccc4)c4ccccc4)C(C)=C1C3(C)C)[C@]1(OC(C)=O)CO[C@@H]1C[C@@H]2O [Paclitaxel, paclitaxel, reference compound] | 4.06 | −10.15 | −4.54 | 8.00 | 7.20 | −4.90 | <-13.00 | −4.39 | −4.82 | −10.75 | >−4.00 | −4.36 | −11.43 | >−4.00 | >−4.00 | −8.32 | >−4.00 |  |  |  | 
CC1=C(C=Cc2cccc(C=CC3=C(C)C4CCC(C)C5CCC6(C)OOC45C(O3)O6)c2)OC2OC3(C)CCC4C(C)CCC1C24OO3 (stereo not shown) [VII-f] | 1.93 | 0.98 | 1.70 | 2.71 | 1.93 | >−4.00 | −5.90 | >−4.00 | >−4.00 | −5.57 | >−4.00 | >−4.00 | −6.23 | >−4.00 | >−4.00 | −5.91 | >−4.00 | >−4.00 | −5.70 | −4.23 | Delta of Log10GI50 (Table IV) [1]: 1.70; potency in words, compared with artemisinin and paclitaxel [1]: in most instances are as potent and in some instances more potent than paclitaxel; also recorded: more potent than artemisinin and equivalent to and in many instances higher in potency than paclitaxel; MG MID of Log10GI50 [1]: −5.73 log10M; MG MID of Log10TGI [1]: −4.23 log10M; Log10 GI50 or LC50 (see conditions) ([2]; PG=+50): −5.71 log10M; Log10 GI50 or LC50 (see conditions) ([2]; Table IV (LC50, PG=−50)): >−4.00 log10M; Log10TGI [9]: >−4.00 log10M; Log10GI50 ([9]; PG=+50): −4.52 log10M; Log10GI50 ([9]; Table IV (LC50, PG=−50)): >−4.00 log10M; Log10TGI ([10]; PG=0): >−4.00 log10M; Log10GI50 ([10]; PG=+50): −4.00 log10M; Log10GI50 ([10]; Table IV (LC50, PG=−50)): >−4.00 log10M; Log10TGI [3]: >−4.00 log10M; Log10 GI50 (PG=+50) or Log10 LC50 (PG=−50), as given per row condition ([4]; PG=+50): −6.12 log10M; Log10 GI50 (PG=+50) or Log10 LC50 (PG=−50), as given per row condition ([4]; Table IV (LC50, PG=−50)): >−4.00 log10M; Log10TGI [5]: −4.21 log10M
CC1=C(C=Cc2cccc(C=CC3=C(C)C4CCC(C)C5CCC6(C)OOC45C(O3)O6)c2)OC2OC3(C)CCC4C(C)CCC1C24OO3 (stereo not shown) [VII-g] | 0.96 | 0.93 | 2.51 | 2.60 | 2.82 | >−4.00 | −6.88 | >−4.00 | >−4.00 | −6.70 | >−4.00 | >−4.00 | −7.27 | >−4.00 | >−4.00 | −5.80 | >−4.00 | >−4.00 | −6.42 | −4.02 | Delta of Log10GI50 (Table IV) [1]: 0.94; potency in words, compared with artemisinin and paclitaxel [1]: in most instances are as potent and in some instances more potent than paclitaxel; also recorded: more potent than artemisinin and equivalent to and in many instances higher in potency than paclitaxel; MG MID of Log10GI50 [1]: −6.58 log10M; MG MID of Log10TGI [1]: −4.32 log10M; Log10 GI50 or LC50 (see conditions) ([2]; PG=+50): −6.37 log10M; Log10 GI50 or LC50 (see conditions) ([2]; Table IV (LC50, PG=−50)): >−4.00 log10M; Log10TGI [9]: >−4.00 log10M; Log10GI50 ([9]; PG=+50): −5.05 log10M; Log10GI50 ([9]; Table IV (LC50, PG=−50)): >−4.00 log10M; Log10TGI [3]: >−4.00 log10M; Log10 GI50 (PG=+50) or Log10 LC50 (PG=−50), as given per row condition ([4]; PG=+50): −7.13 log10M; Log10 GI50 (PG=+50) or Log10 LC50 (PG=−50), as given per row condition ([4]; Table IV (LC50, PG=−50)): >−4.00 log10M; Log10TGI [5]: >−4.00 log10M
CC1=C(C=Cc2cccc(C=CC3=C(C)C4CCC(C)C5CCC6(C)OOC45C(O3)O6)c2)OC2OC3(C)CCC4C(C)CCC1C24OO3 (stereo not shown) [VII-h] | .44 | 0.97 | 2.62 | 4.00 | 3.23 | >−4.00 | −7.37 | >−4.00 | −5.38 | −7.33 | >−4.00 | >−4.00 | −7.81 | >−4.00 | >−4.00 | −6.48 | >−4.00 | >−4.00 | −6.86 | −4.01 | Delta of Log10GI50 (Table IV) [1]: 0.43; potency in words, compared with artemisinin and paclitaxel [1]: in most instances are as potent and in some instances more potent than paclitaxel; also recorded: more potent than artemisinin and equivalent to and in many instances higher in potency than paclitaxel; MG MID of Log10GI50 [1]: −7.03 log10M; MG MID of Log10TGI [1]: −4.61 log10M; Log10 GI50 or LC50 (see conditions) ([2]; PG=+50): −6.86 log10M; Log10 GI50 or LC50 (see conditions) ([2]; Table IV (LC50, PG=−50)): >−4.00 log10M; Log10TGI [9]: >−4.00 log10M; Log10GI50 ([9]; Table IV (LC50, PG=−50)): >−4.00 log10M; Log10TGI [3]: >−4.00 log10M; Log10 GI50 (PG=+50) or Log10 LC50 (PG=−50), as given per row condition ([4]; PG=+50): −7.53 log10M; Log10 GI50 (PG=+50) or Log10 LC50 (PG=−50), as given per row condition ([4]; Table IV (LC50, PG=−50)): >−4.00 log10M; Log10TGI [5]: >−4.00 log10M
